Test system: 3T3
Assay: IGF-1-induced DNA synthesis (3H-thymidine incorporation)
Type: cell-based
Conditions: NIH3T3, activated with 50 ng/mL IGF-1, read-out: inhibited 3T3 proliferation
Method: IGF-1-Induced DNA Synthesis.
Human tumor cell lines or a rat fibroblast cell line are plated out in flat-well plates in complete medium and allowed to adhere overnight. The cells are then starved in medium containing 0.1% bovine serum albumin (BSA) overnight, pre-incubated for 1 h with or without dilutions of compound, then activated overnight with 50 ng/mL insulin-like growth factor (IGF-1). Proliferation is determined by the level of ^3H-thymidine incorporation into DNA.

Question: How did the IC50 turn out when `COc1cc(Nc2nccc(Nc3cnc4ccc(O)cc4c3)n2)cc(OC)c1OC` [Example 135, N^4-(6-Hydroxy-quinolin-3-yl)-N^2-(3,4,5-tris(methoxy)phenyl)-2,4-pyrimidinediamine] was run?
Answer: The IC50 was < 150 nM.

Question: `CC(=O)N1CC(C)(C)c2ccc(Nc3nccc(Nc4cnc5ccccc5c4)n3)cc21` [Example 110, N^2-(1-acetyl-3,3-dimethyl-2,3-dihydro-1H-indol-6-yl)-N^4-(3-quinolinyl)-2,4-pyrimidinediamine] was tested. Which IC50 did it give?
Answer: Its IC50 is < 150 nM.

Question: How did the IC50 turn out when `c1ccc2ncc(Nc3ccnc(Nc4ccc(OCCN5CCCCC5)cc4)n3)cc2c1` [Example 99, N^2-(4-((2-(1-Piperidinyl)ethyl)oxy)phenyl)-N^4-(3-quinolinyl)-2,4-pyrimidinediamine] was run?
Answer: The IC50 was < 150 nM.

Question: `COc1cc(Nc2nccc(Nc3cnc4ccccc4c3)n2)ccc1/C=C/C(=O)N1CCCC1` [Example 148, 3-{2-Methoxy-4-[4-(quinolin-3-ylamino)-pyrimidin-2-ylamino]-phenyl}-1-pyrrolidin-1-yl-propenone] was tested. Which IC50 did it give?
Answer: The IC50 was < 150 nM.

Question: How did the IC50 turn out when `COc1cc(C)c(Nc2nccc(Nc3cnc4ccc(OC(F)(F)F)cc4c3)n2)cc1OC` [Example 140, N^2-(2-Methyl-4,5-dimethoxyphenyl)-N^4-(6-trifluoromethoxy-3-quinolinyl)-2,4-pyrimidinediamine] was run?
Answer: The IC50 was < 150 nM.

Question: For `c1cc(Nc2nccc(Nc3ccc4ncccc4c3)n2)cc(-c2cnco2)c1` [Example 105, N^2-(3-(1,3-oxazol-5-yl)phenyl)-N^4-(6-quinolinyl)-2,4-pyrimidinediamine], which IC50 is on record?
Answer: The IC50 was < 150 nM.

Question: `COc1cc(Nc2nccc(Nc3cnc4ccccc4c3)n2)ccc1CCCN1CCCC1` [Example 150, N^2-[3-Methoxy-4-(3-pyrrolidin-1-yl-propyl)-phenyl]-N-4-quinolin-3-yl-pyrimidine-2,4-diamine] was tested. Which IC50 did it give?
Answer: The IC50 was < 150 nM.

Question: For `COc1ccc2ncc(Nc3ccnc(Nc4cc(OC)c(OC)cc4C)n3)cc2c1` [Example 137, N^4-(6-Methoxy-3-quinolinyl)-N^2-(2-methyl-4,5-dimethoxyphenyl)-2,4-pyrimidinediamine], which IC50 is on record?
Answer: The IC50 was < 150 nM.

Question: Which IC50 does the source give for `CN1CCN(c2ccc(Nc3nccc(Nc4cnc5ccccc5c4)n3)cc2)CC1` [Example 84, N^2-(4-(4-methyl-1-piperazinyl)phenyl)-N^4-(3-qulnolinyl)-2,4-pyrimidinediamine] here?
Answer: Its IC50 is < 150 nM.

Question: How did the IC50 turn out when `COc1cc(Nc2nccc(Nc3ccc4ncccc4c3)n2)cc(OC)c1OC` [Example 14, N^4-quinolin-6-yl-N^2-(3,4,5-trimethoxyphenyl)-pyrimidine-2,4-diamine] was run?
Answer: Its IC50 is < 150 nM.

Question: With `COc1cc(Nc2nccc(Nc3cnc4ccc(OC(F)(F)F)cc4c3)n2)cc(OC)c1OC` [Example 139, N^2-(3,4,5-Tris(methoxy)phenyl)-N^4-(6-trifluoromethoxy-3-quinolinyl)-2,4-pyrimidinediamine] as the compound, how does the IC50 read?
Answer: Its IC50 is < 150 nM.

Question: With `c1ccc2ncc(Nc3ccnc(Nc4ccc(OCCCN5CCCCC5)cc4)n3)cc2c1` [Example 98, N^2-[4-(3-Piperidin-1-yl-propoxy)-phenyl]-N^4-4-quinolin-3-yl-pyrimidine-2,4-diamine] as the compound, how does the IC50 read?
Answer: Its IC50 is < 150 nM.

Question: With `c1ccc2ncc(Nc3ccnc(Nc4ccc(N5CCOCC5)cc4)n3)cc2c1` [Example 48, N^2-(4-(4-morpholinyl)phenyl)-N -(3-quinolinyl)-2,4-pyrimidinediamine] as the compound, how does the IC50 read?
Answer: Its IC50 is < 150 nM.

Question: For `COc1cc(C)c(Nc2nccc(Nc3cnc4ccccc4c3)n2)cc1OC` [Example 20, N^2-(3,4-dimethoxy-6-methylphenyl)-N^4-quinolin-3-yl-pyrimidine-2,4-diamine], which IC50 is on record?
Answer: The IC50 was < 150 nM.

Question: Which IC50 does the source give for `COc1cc(Nc2nccc(Nc3cnc4ccccc4c3)n2)cc(OC)c1OC` [Example 1, N^4-Quinolin-3-yl-N^2-(3,4,5-trimethoxyphenyl)pyrimidine-2,4-diamine] here?
Answer: Its IC50 is < 150 nM.

Question: For `c1ccc2ncc(Nc3ccnc(Nc4ccc(N5CCOCC5)nc4)n3)cc2c1` [Example 49, N^2-(6-(4-morpholinyl)-3-pyridinyl)-N^4-(3-quinolinyl)-2,4-pyrimidinediamine], which IC50 is on record?
Answer: The IC50 was < 150 nM.

Question: How did the IC50 turn out when `COc1ccc(Nc2nccc(Nc3cnc4ccccc4c3)n2)cc1CCN(C)C` [Example 100] was run?
Answer: The IC50 was < 150 nM.

Question: How did the IC50 turn out when `COc1cc(Nc2nccc(Nc3cnc4ccccc4c3)n2)ccc1CCC(=O)N1CCCC1` [Example 149, 3-{2-Methoxy-4-[4-(quinolin-3-ylamino)-pyrimidin-2-ylamino]-phenyl}-1-pyrrolidin-1-yl-propanone] was run?
Answer: Its IC50 is < 150 nM.

Question: With `c1cc(Nc2nccc(Nc3cnc4ccccc4c3)n2)cc(-c2cnco2)c1` [Example 104, N^2-(3-(1,3-oxazol-5-yl)phenyl)-N^4-(3-quinolinyl)-2,4-pyrimidinediamine] as the compound, how does the IC50 read?
Answer: The IC50 was < 150 nM.

Question: `COc1cc(Nc2nccc(Nc3cnc4ccccc4c3)n2)ccc1C(N)=O` [Example 94, 2-(Methoxy)-4-((4-(3-quinolinylamino)-2-pyrimidinyl)amino)benzamide] was tested. Which IC50 did it give?
Answer: Its IC50 is < 150 nM.

Question: Which IC50 does the source give for `COc1cc(Nc2nccc(Nc3cnc4ccccc4c3)n2)ccc1OCCN1CCN(c2nccc(Nc3cnc4ccccc4c3)n2)CC1` [Example 132, N^2-[3-Methoxy-4-(2-{4-[4-(quinolin-3-ylamino)-pyrimidin-2-yl]-piperazin-1-yl}-ethoxy)-phenyl]-N^4-quinolin-3-yl-pyrimidine-2,4-diamine] here?
Answer: The IC50 was < 150 nM.

Question: For `COc1cc(Nc2nccc(Nc3cnc4ccccc4c3)n2)ccc1OCCC1CCN(c2nccc(Nc3cnc4ccccc4c3)n2)CC1` [Example 151, N^2-[3-Methoxy-4-(2-{1-[4-(quinolin-3-ylamino)-pyrimidin-2-yl]-piperidin-4-yl}-ethoxy)-phenyl]-N^4-quinolin-3-yl-pyrimidine-2,4-diamine], which IC50 is on record?
Answer: The IC50 was < 150 nM.

Question: For `COc1ccc2ncc(Nc3ccnc(Nc4cc(OC)c(OC)c(OC)c4)n3)cc2c1` [Example 134, N^4-(6-Methoxy-quinolin-3-yl)-N^2-(3,4,5-tris(methoxy)phenyl)-2,4-pyrimidinediamine], which IC50 is on record?
Answer: Its IC50 is < 150 nM.

Question: `CC(=O)c1ccc(Nc2nccc(Nc3cnc4ccccc4c3)n2)cc1` [Example 59, 1-(4-((4-(3-quinalinylamino)-2-pyrimidinyl)amino)phenyl)ethanone] was tested. Which IC50 did it give?
Answer: Its IC50 is < 150 nM.

Question: With `COc1cc(Nc2nccc(Nc3ccc4nc(C)ccc4c3)n2)cc(OC)c1OC` [Example 118, N^4-(2-Methyl-6-quinolinyl)-N^2-(3,4,5-tris(methoxy)phenyl)-2,4-pyrimidinediamine] as the compound, how does the IC50 read?
Answer: The IC50 was < 150 nM.

Question: With `COc1cc(Nc2nccc(Nc3cc4ccccc4c(OC)n3)n2)cc(OC)c1OC` [Example 130, N^4-(1-Methoxy-isoquinolin-3-yl)-N^2-(3,4,5-trimethoxy-phenyl)-pyrimidine-2,4-diamine] as the compound, how does the IC50 read?
Answer: The IC50 was < 150 nM.

Source: patent US6939874B2, “Substituted pyrimidinyl derivatives and methods of use” (Amgen Inc., priority 2001, dated 2005)
